Molecules are shown by their SMILES. A value given as a limit tells only on which side of the number the result lay.

In the experiment the target is mTOR/GbL/Raptor (mTORC1) (Homo sapiens, UniProt P42345). Briefly: mTOR/GbL/Raptor (mTORC1) ELISA assay. The following applies: phosphorylation of 4E-BP1; 0.2 nM mTORC1, 10 μM ATP; read-out: IC50 in this assay (mTORC1 ELISA). In kind it is biochemical. Put shortly: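 Human mTORC1 (0.2 nM) phosphorylated 50 nM His-tagged 4E-BP1 with 10 µM ATP in HEPES pH 7.2 containing 10 mM MnCl2, 120 min at ambient temperature. Substrate was captured on Ni-chelate plates; phospho-4E-BP1 was detected by primary antibody and HRP secondary with luminescence.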
On the technique in general: ELISA stands for enzyme-linked immunosorbent assay.

In general, IC50 refers to the point on the concentration scale where inhibition reaches its midpoint. For the compound `Cc1nc2cc(-c3ccc4c(c3)CN(c3nc(CN(C)C)nc(C)c3C(C)C)CCO4)cnc2[nH]1` [Example 614, N,N-dimethyl-1-{4-methyl-5-(1-methylethyl)-6-[7-(2-methyl-3H-imidazo[4,5-b]pyridin-6-yl)-2,3-dihydro-1,4-benzoxazepin-4(5H)-yl]pyrimidin-2-yl}methanamine], the IC50 fell in the range of 10 to 50 nM.
Take `CCNc1nc2ccc(-c3ccc4c(c3)CN(c3ccnc5cc(OC)ccc35)CCO4)cc2[nH]1` [Example 291, N-ethyl-6-{4-[7-(methyloxy)quinolin-4-yl]-2,3,4,5-tetrahydro-1,4-benzoxazepin-7-yl}-1H-benzimidazol-2-amine]: the IC50 was in the range of 10 to 50 nM.
The value for `Cc1nc(N2CCOc3ccc(-c4ccc(-c5ncc[nH]5)cc4)cc3C2)c2ccccc2n1` [Example 251, 7-[4-(1H-imidazol-2-yl)phenyl]-4-(2-methylquinazolin-4-yl)-2,3,4,5-tetrahydro-1,4-benzoxazepine] was 10 to 50 nM; that for `CC1(C)CCc2ncnc(N3CCOc4ccc(-c5cnc(N)c(S(=O)(=O)N6CC(N)C6)c5)cc4C3)c2C1` [Example 443, 3-[(3-aminoazetidin-1-yl)sulfonyl]-5-[4-(6,6-dimethyl-5,6,7,8-tetrahydroquinazolin-4-yl)-2,3,4,5-tetrahydro-1,4-benzoxazepin-7-yl]pyridin-2-amine] was no more than 10 nM.
`CC(C)(N)CCNS(=O)(=O)c1cc(-c2ccc3c(c2)CN(c2ncnc4c2CC(C)(C)CC4)CCO3)cnc1N` [Example 413, 2-amino-N-(3-amino-3-methylbutyl)-5-[4-(6,6-dimethyl-5,6,7,8-tetrahydroquinazolin-4-yl)-2,3,4,5-tetrahydro-1,4-benzoxazepin-7-yl]pyridine-3-sulfonamide]: the IC50 is 50 to 250 nM.
`Cc1c(NCCC2CCCN2C)ncnc1N1CCOc2ccc(-c3cnc4nc(C5CC5)[nH]c4c3)cc2C1` (stereo not shown) [Example 534, 6-[7-(2-cyclopropyl-1H-imidazo[4,5-b]pyridin-6-yl)-2,3-dihydro-1,4-benzoxazepin-4(5H)-yl]-5-methyl-N-[2-(1-methylpyrrolidin-2-yl)ethyl]pyrimidin-4-amine]: the IC50 lay within 1000 to 2000 nM.
In the case of `Cc1nc2cc(-c3ccc4c(c3)CN(c3nc(CN(C)C)nc5c3CC(C)(C)CC5)CCO4)c(F)cc2[nH]1` [Example 342, 1-{4-[7-(6-fluoro-2-methyl-1H-benzimidazol-5-yl)-2,3-dihydro-1,4-benzoxazepin-4(5H)-yl]-6,6-dimethyl-5,6,7,8-tetrahydroquinazolin-2-yl}-N,N-dimethylmethanamine] it was 250 to 1000 nM.
Regarding `Cc1nc2ncc(-c3ccc4c(c3)CN(c3nc(CN5CCC(F)(F)C5)nc5c3CC(C)(C)CC5)CCO4)cc2[nH]1` [Example 503, 4-{2-[(3,3-difluoropyrrolidin-1-yl)methyl]-6,6-dimethyl-5,6,7,8-tetrahydroquinazolin-4-yl}-7-(2-methyl-1H-imidazo[4,5-b]pyridin-6-yl)-2,3,4,5-tetrahydro-1,4-benzoxazepine], the IC50 fell in the range of 10 to 50 nM.
The value for `COc1ccc2c(N3CCOc4ccc(-c5cnc(N)nc5)cc4C3)nc(C)nc2c1` [Example 286, 5-{4-[2-methyl-7-(methyloxy)quinazolin-4-yl]-2,3,4,5-tetrahydro-1,4-benzoxazepin-7-yl}pyrimidin-2-amine] was no less than 2000 nM.
Regarding `Cc1nc2ccc(-c3ccc4c(c3)CN(c3ncnc5c3CCCC5)CCO4)cc2[nH]1` [Example 46, 7-(2-methyl-1H-benzimidazol-6-yl)-4-(5,6,7,8-tetrahydroquinazolin-4-yl)-2,3,4,5-tetrahydro-1,4-benzoxazepine], the IC50 fell in the range of 250 to 1000 nM.
In the case of `Cc1nc2ccc(-c3ccc4c(c3)CN(c3nc(CN(C)C)nc(C)c3CC3CC3)CCO4)cc2[nH]1` [Example 345, 1-{5-(cyclopropylmethyl)-4-methyl-6-[7-(2-methyl-1H-benzimidazo-6-yl)-2,3-dihydro-1,4-benzoxazepin-4(5H)-yl]pyrimidin-2-yl}-N,N-dimethylmethanamine] it was 250 to 1000 nM; in that of `Cc1nc2ccc(-c3ccc4c(c3)CN(c3ncnc5c3CCC(C)C5)CCO4)cc2[nH]1` (stereo not shown) [Example 63, 7-(2-methyl-1H-benzimidazol-6-yl)-4-(7-methyl-5,6,7,8-tetrahydroquinazolin-4-yl)-2,3,4,5-tetrahydro-1,4-benzoxazepine], 50 to 250 nM; in that of `Nc1nc2ncc(-c3ccc4c(c3)CN(c3ncnc5ccc(F)cc35)CCO4)cc2[nH]1` [Example 187, 6-[4-(6-fluoroquinazolin-4-yl)-2,3,4,5-tetrahydro-1,4-benzoxazepin-7-yl]-1H-imidazo[4,5-b]pyridin-2-amine], 10 to 50 nM.
Take `CCNC(=O)c1ccc(-c2ccc3c(c2)CN(c2ccnc4ccccc24)CCO3)cc1` [Example 243, N-ethyl-4-(4-quinolin-4-yl-2,3,4,5-tetrahydro-1,4-benzoxazepin-7-yl)benzamide]: the IC50 is 50 to 250 nM.
In the case of `CC1(C)C=Cc2ncnc(N3CCOc4ccc(-c5ccc(-c6ncc[nH]6)cc5)cc4C3)c2C1` [Example 479, 4-(6,6-dimethyl-5,6-dihydroquinazolin-4-yl)-7-[4-(1H-imidazo-2-yl)phenyl]-2,3,4,5-tetrahydro-1,4-benzoxazepine] it was no more than 10 nM; in that of `CCNc1nc2ccc(-c3ccc4c(c3)CN(c3ncnc5cc(F)ccc35)CCO4)cc2[nH]1` [Example 281, N-ethyl-6-[4-(7-fluoroquinazolin-4-yl)-2,3,4,5-tetrahydro-1,4-benzoxazepin-7-yl]-1H-benzimidazol-2-amine], 50 to 250 nM; in that of `Cc1nc2ccc(-c3ccc4c(c3)CN(c3nc(CNC5CC5)nc(C)c3Cc3ccc(F)cc3)CCO4)cc2[nH]1` [Example 584, N-({5-[(4-fluorophenyl)methyl]-4-methyl-6-[7-(2-methyl-1H-benzimidazol-6-yl)-2,3-dihydro-1,4-benzoxazepin-4(5H)-yl]pyrimidin-2-yl}methyl)cyclopropanamine], no more than 10 nM.
The value for `CC1(C)CCc2ncnc(N3CCOc4ccc(-c5cnc(N)c(S(=O)(=O)NC[C@H]6CCNC6)c5)cc4C3)c2C1` [Example 391, 2-amino-5-[4-(6,6-dimethyl-5,6,7,8-tetrahydroquinazolin-4-yl)-2,3,4,5-tetrahydro-1,4-benzoxazepin-7-yl]-N-[(3S)-pyrrolidin-3-ylmethyl]pyridine-3-sulfonamide] was 10 to 50 nM; that for `COC(=O)Nc1nc2ncc(-c3ccc4c(c3)CN(c3ncnc5c3CC(C)(C)CC5)CCO4)cc2[nH]1` [Example 582, methyl {6-[4-(6,6-dimethyl-5,6,7,8-tetrahydroquinazolin-4-yl)-2,3,4,5-tetrahydro-1,4-benzoxazepin-7-yl]-1H-imidazo[4,5-b]pyridin-2-yl}carbamate] was no more than 10 nM; that for `Cc1ncnc(N2CCOc3ccc(-c4ccc(N)nn4)cc3C2)c1Cc1ccc(F)cc1` [Example 149, 6-(4-{5-[(4-fluorophenyl)methyl]-6-methylpyrimidin-4-yl}-2,3,4,5-tetrahydro-1,4-benzoxazepin-7-yl)pyridazin-3-amine] was 50 to 250 nM.
The value for `CCNc1nc2ccc(-c3ccc4c(c3)CN(c3nc(C)nc5cc(F)ccc35)CCO4)cc2[nH]1` [Example 295, N-ethyl-6-[4-(7-fluoro-2-methylquinazolin-4-yl)-2,3,4,5-tetrahydro-1,4-benzoxazepin-7-yl]-1H-benzimidazol-2-amine] was 50 to 250 nM; that for `Cc1nc2ccc(-c3ccc4c(c3)CN(c3ncnc5c(Cl)cc(Cl)cc35)CCO4)cc2[nH]1` [Example 32, 4-(6,8-dichloroquinazolin-4-yl)-7-(2-methyl-1H-benzimidazol-6-yl)-2,3,4,5-tetrahydro-1,4-benzoxazepine] was 50 to 250 nM.
For `Cc1c(NC2CCOCC2)ncnc1N1CCOc2ccc(-c3cnc4nc(C5CC5)[nH]c4c3)cc2C1` [Example 532, 6-[7-(2-cyclopropyl-1H-imidazo[4,5-b]pyridin-6-yl)-2,3-dihydro-1,4-benzoxazepin-4(5H)-yl]-5-methyl-N-(tetrahydro-2H-pyran-4-yl)pyrimidin-4-amine], the IC50 was in the range of 250 to 1000 nM.
The value for `CC[C@H]1CCc2c(ncnc2N2CCOc3ccc(-c4cnc(N)c(S(=O)(=O)N5CCC(C)(N)C5)c4)cc3C2)C1` (stereo partly drawn) [Example 442, 3-[(3-amino-3-methylpyrrolidin-1-yl)sulfonyl]-5-{4-[(7S)-7-ethyl-5,6,7,8-tetrahydroquinazolin-4-yl]-2,3,4,5-tetrahydro-1,4-benzoxazepin-7-yl}pyridin-2-amine] was 10 to 50 nM; that for `CCOc1ccc2ncnc(N3CCOc4ccc(-c5ccc6nc(C)[nH]c6c5)cc4C3)c2c1` [Example 159, 4-[6-(ethyloxy)quinazolin-4-yl]-7-(2-methyl-1H-benzimidazol-6-yl)-2,3,4,5-tetrahydro-1,4-benzoxazepine] was 50 to 250 nM.
In the case of `CCOC(=O)Nc1nc2ncc(-c3ccc4c(c3)CN(c3ncnc5c3CC(C)(C)CC5)CCO4)cc2[nH]1` [Example 576, ethyl {6-[4-(6,6-dimethyl-5,6,7,8-tetrahydroquinazolin-4-yl)-2,3,4,5-tetrahydro-1,4-benzoxazepin-7-yl]-1H-imidazo[4,5-b]pyridin-2-yl}carbamate] it was 10 to 50 nM.
In the case of `CCNc1nc2ncc(-c3ccc4c(c3)CN(c3nc(C)nc5cc(OC)ccc35)CCO4)cc2[nH]1` [Example 642, N-ethyl-6-{4-[2-methyl-7-(methyloxy)quinazolin-4-yl]-2,3,4,5-tetrahydro-1,4-benzoxazepin-7-yl}-1H-imidazo[4,5-b]pyridin-2-amine] it was 10 to 50 nM.
On to `CCCNC(=O)c1ccc(-c2ccc3c(c2)CN(c2ccnc4ccccc24)CCO3)cc1` [Example 244, N-propyl-4-(4-quinolin-4-yl-2,3,4,5-tetrahydro-1,4-benzoxazepin-7-yl)benzamide], for which the IC50 lay in the range of 50 to 250 nM.

The values above are taken from US8648066B2 (Exelixis, Inc., priority 2009, dated 2014).
